ChEMBL document CHEMBL4152309, “N-phenylsulfonyl-3,5-bis(arylidene)-4-piperidone derivatives as activation NF-κB inhibitors in hepatic carcinoma cell lines” (Eur J Med Chem, 2018)
Activity calls are given as the source filed them. The rule behind the calls is not given here.

Key:
SMMC-7721 = experiment: Cytotoxicity against human SMMC7721 cells assessed as reduction in cell viability after 24 hrs by MTT assay; type: functional, cell-based; details: for IC50: SMMC-7721, 24 h
QGY-7703 = experiment: Cytotoxicity against human QGY7703 cells assessed as reduction in cell viability after 24 hrs by MTT assay; type: functional, cell-based; details: for IC50: QGY-7703, 24 h
HepG2 = experiment: Cytotoxicity against human HepG2 cells assessed as reduction in cell viability after 24 hrs by MTT assay; type: functional, cell-based; details: for IC50: HepG2, 24 h
L02 = experiment: Cytotoxicity against human LO2 cells assessed as reduction in cell viability after 24 hrs by MTT assay; type: cell-based; details: L02, 24 h
[1] = Cytotoxicity against human HHL5 cells assessed as reduction in cell viability after 24 hrs by MTT assay; type: cell-based; details: HHL-5, 24 h
[2] = Cytotoxicity against mouse RAW264.7 cells assessed as cell viability at 10 uM after 24 hrs by MTT assay relative to control; type: cell-based; details: read-out: Activity
RAW264.7 [3] = experiment: Anti-inflammatory activity in mouse RAW264.7 cells assessed as inhibition of LPS-induced TNFalpha secretion at 10 uM pretreated for 2 hrs followed by LPS stimulation and measured after 22 hrs by ELISA; type: functional, cell-based
RAW264.7 [4] = experiment: Anti-inflammatory activity in mouse RAW264.7 cells assessed as inhibition of LPS-induced IL-6 secretion at 10 uM pretreated for 2 hrs followed by LPS stimulation and measured after 22 hrs by ELISA; type: functional, cell-based
RAW264.7 [5] = experiment: Anti-inflammatory activity in mouse RAW264.7 cells assessed as inhibition of LPS-induced IL-6 secretion at 30 uM pretreated for 2 hrs followed by LPS stimulation and measured after 22 hrs by ELISA; type: functional, cell-based
RAW264.7 [6] = experiment: Anti-inflammatory activity in mouse RAW264.7 cells assessed as inhibition of LPS-induced TNFalpha secretion at 30 uM pretreated for 2 hrs followed by LPS stimulation and measured after 22 hrs by ELISA; type: functional, cell-based

SMILES	IC50 (SMMC-7721) [µM]	IC50 (QGY-7703) [µM]	IC50 (HepG2) [µM]	IC50 (L02) [µM]	IC50 [1] [µM]	viability at 24 h, 10 µM [2] [%]	inhibition (RAW264.7 [3])	Activity (SMMC-7721)	Activity (QGY-7703)	Activity (HepG2)	inhibition (RAW264.7 [4])	inhibition (RAW264.7 [5])	inhibition (RAW264.7 [6])
N#Cc1ccc(/C=C2\CN(S(=O)(=O)c3ccc(F)cc3)C/C(=C\c3ccccc3F)C2=O)cc1	10.2	20.1	8.18	21.9	19	> 80	Active	–	–	–	–	–	–
COc1cccc2c1C(=O)c1c(O)c3c(c(O)c1C2=O)C[C@@](O)(C(=O)CO)C[C@@H]3O[C@H]1C[C@H](N)[C@H](O)[C@H](C)O1 [DOXORUBICIN]	1.47	1.44	1.01	7.87	9.27	–	–	Dose-dependent effect	Dose-dependent effect	Dose-dependent effect	–	–	–
CC(=O)Nc1ccc(S(=O)(=O)N2C/C(=C\c3ccc(C#N)cc3)C(=O)/C(=C/c3ccc(C#N)cc3)C2)cc1	7.12	3.32	4.88	14	11.9	> 80	–	–	–	–	–	–	–
COc1cc(/C=C2\CN(S(=O)(=O)c3ccc(NC(C)=O)cc3)C/C(=C\c3cc(OC)c(OC)c(OC)c3)C2=O)cc(OC)c1OC	3.47	1.9	3.89	13.6	13.8	> 80	–	–	–	–	–	–	–
CC(=O)Nc1ccc(S(=O)(=O)N2C/C(=C\c3ccc(C#N)cc3)C(=O)/C(=C/c3ccccc3F)C2)cc1	3.15	2.05	4.96	14.4	11.3	> 80	–	–	–	–	–	–	–
COc1cc(/C=C2\CN(S(=O)(=O)c3ccc(NC(C)=O)cc3)C/C(=C\c3ccccc3F)C2=O)cc(OC)c1	5.21	3.69	6.8	15.4	15.3	> 80	–	–	–	–	–	–	–
COc1cc(/C=C2\CN(S(=O)(=O)c3ccc(F)cc3)C/C(=C\c3cc(OC)cc(OC)c3)C2=O)cc(OC)c1	8.21	11.4	8.1	19.8	14.4	> 80	–	–	–	–	–	–	–
N#Cc1ccc(/C=C2\CN(S(=O)(=O)c3ccc(F)cc3)C/C(=C\c3ccc(C#N)cc3)C2=O)cc1	20.1	11.3	11.5	18.9	19.2	> 80	Active	–	–	–	–	–	–
O=C1/C(=C/c2cccc([N+](=O)[O-])c2)CN(S(=O)(=O)c2ccc(F)cc2)C/C1=C\c1cccc([N+](=O)[O-])c1	3.98	11.9	8.76	15.5	11.2	> 80	–	–	–	–	–	–	–
CC(=O)Nc1ccc(S(=O)(=O)N2C/C(=C\c3cccc([N+](=O)[O-])c3)C(=O)/C(=C/c3ccccc3F)C2)cc1	10.2	7.85	8.8	18.4	20	> 80	–	–	–	–	Active	–	–
O=C1/C(=C/c2ccccc2F)CN(S(=O)(=O)c2ccc(F)cc2)C/C1=C\c1ccccc1F	8.37	8.5	7.22	19.1	13.4	> 80	–	–	–	–	–	–	–
O=C1/C(=C/c2cccc([N+](=O)[O-])c2)CN(S(=O)(=O)c2ccc(F)cc2)C/C1=C\c1ccccc1F	7.82	14.9	7.04	17	17.8	> 80	–	–	–	–	–	–	–
COc1cc(/C=C/C(=O)CC(=O)/C=C/c2ccc(O)c(OC)c2)ccc1O [CURCUMIN]	19.5	21.4	16	23.9	22.3	–	–	–	–	–	–	–	–
COc1cc(/C=C2\CN(S(=O)(=O)c3ccc(F)cc3)C/C(=C\c3cc(OC)c(OC)c(OC)c3)C2=O)cc(OC)c1OC	3.84	2.22	4.2	12.1	11	> 80	–	–	–	–	–	–	–
CC(=O)Nc1ccc(S(=O)(=O)N2C/C(=C\c3cccc([N+](=O)[O-])c3)C(=O)/C(=C/c3cccc([N+](=O)[O-])c3)C2)cc1	8.42	6.76	7.14	15.8	17.8	> 80	–	–	–	–	–	–	–
CC(=O)Nc1ccc(S(=O)(=O)N2C/C(=C\c3ccccc3F)C(=O)/C(=C/c3ccccc3F)C2)cc1	7.49	5.5	5.84	11.6	13.3	> 80	–	–	–	–	–	–	–
COc1cc(/C=C2\CN(S(=O)(=O)c3ccc(NC(C)=O)cc3)C/C(=C\c3cc(OC)cc(OC)c3)C2=O)cc(OC)c1	6.84	11.3	7.54	18.7	18.1	> 80	–	–	–	–	–	–	–
COc1cc(/C=C2\CN(S(=O)(=O)c3ccc(F)cc3)C/C(=C\c3ccccc3F)C2=O)cc(OC)c1	6.89	14	9.3	18.4	16	> 80	–	–	–	–	–	–	–
COc1cc(/C=C2\CN(S(=O)(=O)c3ccc(F)cc3)C/C(=C\c3ccc(C#N)cc3)C2=O)cc(OC)c1OC	4.12	4.98	4.95	12.9	12.9	> 80	–	–	–	–	–	–	–
COc1cc(/C=C2\CN(S(=O)(=O)c3ccc(NC(C)=O)cc3)C/C(=C\c3cccc([N+](=O)[O-])c3)C2=O)cc(OC)c1OC	1.95	2.55	3.34	15.6	14.2	> 80	–	–	–	–	–	–	–
COc1cc(/C=C2\CN(S(=O)(=O)c3ccc(F)cc3)C/C(=C\c3cc(OC)c(OC)c(OC)c3)C2=O)cc(OC)c1	5.42	5.2	3.89	12.3	11.3	> 80	Active	–	–	–	–	–	–
S=C(S)N1CCCC1	–	–	–	–	–	–	–	–	–	–	–	Active	Active
COc1cc(/C=C2\CN(S(=O)(=O)c3ccc(F)cc3)C/C(=C\c3cccc([N+](=O)[O-])c3)C2=O)cc(OC)c1OC	4.9	3.27	3.25	18.8	11.1	> 80	–	–	–	–	–	–	–
COc1cc(/C=C2\CN(S(=O)(=O)c3ccc(F)cc3)C/C(=C\c3ccccc3F)C2=O)cc(OC)c1OC	6.34	13.3	7.94	17.6	15.9	> 80	–	–	–	–	Active	–	–
COc1cc(/C=C2\CN(S(=O)(=O)c3ccc(NC(C)=O)cc3)C/C(=C\c3cc(OC)c(OC)c(OC)c3)C2=O)cc(OC)c1	4.2	2.02	4.14	15.9	13.5	> 80	–	–	–	–	–	–	–
COc1cc(/C=C2\CN(S(=O)(=O)c3ccc(NC(C)=O)cc3)C/C(=C\c3ccccc3F)C2=O)cc(OC)c1OC	3.92	2.68	4.75	14	12.2	> 80	–	–	–	–	–	–	–
